Measurements reported in US20240116923A1, “USE OF INDOLE, 6- AND 7-AZAINDOLE DERIVATIVES AS INHIBITORS OF FERROPTOSIS REGULATED CELL DEATH” (Seabelife, priority 2021, published 2024).

Test system: male Wistar rats
Test: In vivo model of ischaemic acute renal failure induced by transient bilateral renal artery occlusion
Conditions: rat, 15 mg/kg IP
Description: The experiment was carried out using male Wistar rats (Janvier Labs, C.S. 4105, Saint-Berthevin F-53941, France), weighing 200-260 g on the day of surgery. Before surgery, the animals were housed in groups 2-4 in polysulfone cages (floor area=1500 cm^2) under standard conditions: room temperature (22±2° C.), hygrometry (55±10%), light/dark cycle (12 h/12 h), air replacement (15-20 volumes/hour), water and food (SAFE, ref. A04) ad libitum. The animals were allowed to acclimate to environmental conditions for at least 5 days prior to experimentation. Rats were anesthetised with sodium pentobarbital (60 mg/kg i.p.), and placed on a servocontrolled heating table to maintain rectal temperature close to 37° C. After endotracheal intubation animals were mechanically ventilated. The abdominal cavity was exposed by medial laparotomy, both left and right renal arteries will be identified, carefully dissected from the renal vein and clamped for 40 min. During this clamping period the abdominal cavity was kept closed. The clamps were released, perfusion to the kidneys re-established and the abdominal cavity sutured. Animals where reperfusion were incomplete, as judged visually, were excluded. Post-surgical analgesia was ensured by subcutaneous administration of buprenorphine (10 50 μg/kg, sc) twice daily for 2 days (including the day of surgery). After surgery, the animals were individually housed. The animals were observed and weighted daily and the sutures were examined and disinfected with antiseptic solution (povidone-iodine) if needed.
A follow-up of body weight and mortality were performed for all animals, the day of surgery and during the 7 days following ischaemia. In order to determine creatinine and blood urea nitrogen (BUN) concentrations in plasma, 6 blood samples of at least 0.3 mL were taken from each animal: before surgery and then on days 1, 2, 3 (before vehicle/SBL01 administrations), 4 and 7 after surgery. The following parameters were measured: Creatinine concentration in plasma, Blood urea nitrogen concentration, and Body weight. […]

With `Oc1ccc(-c2cc3cccnc3[nH]2)cc1` [Compound 7, 4-(1H-pyrrolo[2,3-b]pyridin-2-yl)phenol] the creatinine plasma level (Day 2 after surgery, vs vehicle, FIG. 40) was “significant decrease”, the urea plasma level (Day 2 after surgery, vs vehicle, FIG. 41) was “significant decrease” and the “renal function during artery occlusion (protection against renal ischaemic failure)” value (compared to the vehicle) was “protective effect”.
